Tests used:
[1] = AUC/dose (0-168h) of total radioactivity following single intravenous administration of [14C] aliskiren hemifumarate at 1 mg.Kg-1 level in marmoset; format: ADME, organism-based, Callithrix jacchus, Plasma; conditions: in vivo
[2] = Concentration of radioactivity in the brown fat following repeated oral administration of [14C] aliskiren hemifumarate at 100 mg.Kg-1 level studied at 2h after 10th dose in rat; format: ADME, organism-based, Albino HAN:WIST, Brown adipose tissue; conditions: in vivo
[3] = Concentration of radioactivity in the colon wall following repeated oral administration of [14C] aliskiren hemifumarate at 100 mg.Kg-1 level studied at 2h after 10th dose in rat; format: ADME, organism-based, Albino HAN:WIST; conditions: in vivo
[4] = Concentration of radioactivity in the kidney medulla following repeated oral administration of [14C] aliskiren hemifumarate at 100 mg.Kg-1 level studied at 2h after 3rd dose in rat; format: ADME, organism-based, Albino HAN:WIST, Renal medulla; conditions: in vivo
[5] = Mean excretion of radioactivity (0-24h) in urine and faeces following single oral dose of 500 mg.Kg-1 [14C] aliskiren hemifumarate in mouse; format: ADME, organism-based, TgRasH2, Urine/Feces; conditions: in vivo
[6] = Mean excretion of radioactivity (0-24h) in urine and faeces following single intravenous dose of 10 mg.Kg-1 [14C] aliskiren hemifumarate in mouse; format: ADME, organism-based, TgRasH2, Urine/Feces; conditions: in vivo
[7] = Mean excretion of radioactivity (48-72h) in urine and faeces following single intravenous dose of 10 mg.Kg-1 [14C] aliskiren hemifumarate in rat; format: ADME, organism-based, Albino HAN:WIST, Urine/Feces; conditions: in vivo
[8] = Excretion (0-168h) of 14C-radioactivity in faeces following single oral dose of 300 mg [14C]SPP100 studied in healthy men; format: ADME, organism-based, Feces; conditions: human, in vivo, at 300 mg
[9] = Concentration of radioactivity in carcass following intravenous administration of [14C] aliskiren hemifumarate at 10 mg.Kg-1 level measured on day 7 in rat; format: ADME, organism-based, Lister-Hooded; conditions: in vivo
[10] = Elimination (0-96h) of radioactivity via biliary route following oral administration of [14C] aliskiren hemifumarate at 100 mg.Kg-1 level in rat; format: ADME, organism-based, Albino HAN:WIST, Bile; conditions: in vivo
[11] = Plasma clearance (0-96h) of total radioactivity following oral administration of [14C] aliskiren hemifumarate at 100 mg.Kg-1 level in rat; format: ADME, organism-based, Albino HAN:WIST; conditions: in vivo, iv
Cytochrome P450 2J2 = target: T1, Cytochrome P450 2J2 (Homo sapiens, UniProt P51589); test: Metabolic clearance (ul.min.nmol-1 CYP) of aliskiren hemifumarate for CYP2J2 was determined in human liver microsome incubated with [14C]SPP100 hemifumarate; format: ADME; conditions: microsomes
T1 sequence (P51589 whole entry): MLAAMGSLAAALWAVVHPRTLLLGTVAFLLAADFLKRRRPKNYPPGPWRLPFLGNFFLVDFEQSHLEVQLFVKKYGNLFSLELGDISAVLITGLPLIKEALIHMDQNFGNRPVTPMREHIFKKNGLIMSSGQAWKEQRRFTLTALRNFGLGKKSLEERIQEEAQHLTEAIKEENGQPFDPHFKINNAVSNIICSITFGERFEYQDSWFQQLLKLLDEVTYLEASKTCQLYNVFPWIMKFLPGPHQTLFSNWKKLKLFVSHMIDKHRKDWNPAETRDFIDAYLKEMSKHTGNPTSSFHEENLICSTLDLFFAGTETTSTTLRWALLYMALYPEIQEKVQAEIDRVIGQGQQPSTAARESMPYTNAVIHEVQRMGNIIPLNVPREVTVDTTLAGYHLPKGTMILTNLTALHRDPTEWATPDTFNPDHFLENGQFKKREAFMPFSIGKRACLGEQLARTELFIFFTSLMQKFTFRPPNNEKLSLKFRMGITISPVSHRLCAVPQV

[12] = Tmax of aliskiren hemifumarate following repeated oral administration of [14C] aliskiren hemifumarate at 100 mg.Kg-1 level studied after 2h of dosing on day 10 in rat; format: ADME, organism-based, Albino HAN:WIST; conditions: in vivo
[13] = Cmax of aliskiren hemifumarate following 4 week oral dietary dosing of aliskiren hemifumarate at 500 mg.Kg-1 level in female mouse; format: ADME, organism-based; conditions: CB6F1-TGrasH2, mouse, in vivo
[14] = Tmax of aliskiren hemifumarate following 2 week oral dosing of aliskiren hemifumarate at 100 mg.Kg-1 level studied on day 14 in female Callithrix jacchus; format: ADME, organism-based; conditions: marmoset, plasma
[15] = Effect of 2 week oral dosing of aliskiren hemifumarate at 50 mg.Kg-1 level on hematological parameter values in female Callithrix jacchus; format: toxicity, organism-based, Plasma; conditions: marmoset, in vivo, 336 h
[16] = Cmax of unlabeled aliskiren hemifumarate following single oral dose of aliskiren hemifumarate at 500 mg.Kg-1 level in mouse; format: ADME, organism-based; conditions: TgRasH2, mouse, plasma
[17] = Tmax of aliskiren hemifumarate following 4 week oral dietary dosing of aliskiren hemifumarate at 2000 mg.Kg-1 level in male mouse; format: ADME, organism-based; conditions: CB6F1-TGrasH2, mouse, in vivo
[18] = Cmax of aliskiren hemifumarate following 8 day once-daily dosing of SPP100B oral solution at 80 mg level studied on day 8 in men; format: ADME, organism-based; conditions: male, human, plasma
[19] = Tmax of aliskiren hemifumarate following 4 week oral dietary dosing of aliskiren hemifumarate at 1000 mg.Kg-1 level in female mouse; format: ADME, organism-based; conditions: CB6F1-TGrasH2, mouse, in vivo
[20] = Cmax normalised (0-168h) of unlabeled aliskiren hemifumarate following single oral administration of aliskiren hemifumarate at 3 mg.Kg-1 level in marmoset; format: ADME, organism-based, Callithrix jacchus, Plasma; conditions: in vivo
[21] = Tmax of aliskiren hemifumarate following 2 week oral dosing of aliskiren hemifumarate at 10 mg.Kg-1 level studied on day 1 in female Callithrix jacchus; format: ADME, organism-based; conditions: marmoset, plasma
[22] = % SPP100 in urine following single oral dose of 300 mg [14C]SPP100 studied in healthy men; format: ADME, organism-based; conditions: human, in vivo, at 300 mg
[23] = % of radioactivity recovered as aliskiren in plasma following oral administration of [14C] aliskiren hemifumarate at 100 mg.Kg-1 level in rat; format: ADME, organism-based, Albino HAN:WIST; conditions: in vivo
CYP1A2 = target: T2, CYP1A2 (Homo sapiens, UniProt P05177); test: Inhibitory activity of 20 uM SPP100 on 489 Pmoles of cDNA-derived CYP1A2 enzyme in microsome prepared from human lymphoblastoid cell line; format: ADME, microsomes; set-up: conc 20 uM, interact cpd conc 50 uM; conditions: probe phenacetin
T2 sequence (P05177 whole entry): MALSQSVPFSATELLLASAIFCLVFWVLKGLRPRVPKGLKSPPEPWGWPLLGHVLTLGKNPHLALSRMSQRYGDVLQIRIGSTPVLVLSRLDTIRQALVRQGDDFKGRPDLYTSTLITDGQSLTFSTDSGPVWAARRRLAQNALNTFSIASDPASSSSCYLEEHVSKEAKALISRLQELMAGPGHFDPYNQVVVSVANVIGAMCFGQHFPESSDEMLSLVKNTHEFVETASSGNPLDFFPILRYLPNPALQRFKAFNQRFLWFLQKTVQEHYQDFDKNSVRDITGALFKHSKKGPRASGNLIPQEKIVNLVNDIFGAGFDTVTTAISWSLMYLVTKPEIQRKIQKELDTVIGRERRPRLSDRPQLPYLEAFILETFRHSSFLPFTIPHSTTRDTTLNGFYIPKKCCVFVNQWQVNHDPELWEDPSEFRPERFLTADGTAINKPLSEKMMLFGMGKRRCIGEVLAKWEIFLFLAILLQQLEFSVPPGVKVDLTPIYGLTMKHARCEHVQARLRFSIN

With `COCCCOc1cc(C[C@@H](C[C@H](N)[C@@H](O)C[C@H](C(=O)NCC([14CH3])([14CH3])C(N)=O)C(C)C)C(C)C)ccc1OC.O=C(O)/C=C/C(=O)O` the AUC normalised [1] was 52.92 (umol.h/L)/(mg/kg), the Radiolabel recovery [2] was “OUTCOME = Detected” and the Radiolabel recovery [3] was “OUTCOME = Observed, VALUE = Highest radioactivity concentration was observed”. The Radiolabel recovery [4] was “OUTCOME = Detected”, the Radiolabel recovery [5] was 69.96% and the Radiolabel recovery [6] was 84.68%. The Radiolabel recovery [7] was 5.05%, the Radiolabel recovery [8] was 90.89% and the Radiolabel recovery [9] was “OUTCOME = Observed, VALUE = residues of radioactivity remained in the carcass at 7 days after dosing”. For the same compound, the Radiolabel recovery [10] was “OUTCOME = Observed/Elimination of radioactivity was mainly via biliary route”, the Plasma clearance [11] was 1.28 L·h/kg and the CL (Cytochrome P450 2J2) was 10.6 µL·min/nmol.

For `COCCCOc1cc(C[C@@H](C[C@H](N)[C@@H](O)C[C@H](C(=O)NCC(C)(C)C(N)=O)C(C)C)C(C)C)ccc1OC.COCCCOc1cc(C[C@@H](C[C@H](N)[C@@H](O)C[C@H](C(=O)NCC(C)(C)C(N)=O)C(C)C)C(C)C)ccc1OC.O=C(O)/C=C/C(=O)O` [ALISKIREN FUMARATE], the “Tmax(10)” value [12] was 218 h, the Cmax [13] was 63.8 ng/mL and the Tmax [14] was 2 h. The Change in hematology [15] was “OUTCOME = Hematological parameter values did not differ from control values. No animals died during the study”, the Cmax [16] was 1450 nM and the Tmax [17] was 1 h. For the same compound, the Cmax [18] was 12.7 ng/mL, the Tmax [19] was 3 h and the Cmax normalised [20] was 0.132 (umol/L)/(mg/kg). It also gave a Tmax [21] of 1 h.

For `COCCCOc1cc(C[C@@H](C[C@H](N)[C@@H](O)C[C@H](C(=O)NCC(C)(C)C(N)=O)C(C)C)C(C)C)ccc1OC`, the Compound recovery [22] was 0.4%, the Compound recovery [23] was > 40% and the inhibition at 20 µM (CYP1A2) was 5%.

Source: ChEMBL document CHEMBL3508693 (2016)
